Assay results from patent publication US20090297469A1, “Cyanoacrylate Monomer Formulation Containing Diiodomethyl-p-tolylsulfone and 2,4,4'-Trichloro-2'-Hydroxydiphenyl Ether” (priority 2004, published 2009).
In brackets after ≈: the same amount, converted by molar mass. One block for each compound: values may come before it.

Experiments:
Candida albicans 10231 = test: MIC/MBC by tube dilution procedure; type: cell-based; conditions: preliminary evaluation
Experimental: (§1) The effectiveness of the antimicrobial property of pure DIMPTS is described in terms of minimum inhibitory concentration (MIC) and minimum bactericidal concentration (MBC) in Table II (A). Minimum inhibitory concentration is the lowest concentration that prevents the development of visible growth after a period of incubation. Minimum bactericidal concentration is the lowest concentration that achieves a 1000 fold or greater reduction in the original bacterial inoculum. The minimum inhibitory concentration and minimum bactericidal concentration is evaluated using tube dilution procedure.

[1] = tested on: Streptococcus agalactiae 624; test: MIC/MBC by tube dilution procedure; type: cell-based; conditions: preliminary evaluation
Experimental: as §1

[2] = tested on: Pseudomonas aeruginosa 9027; test: MIC/MBC by tube dilution procedure; type: cell-based; conditions: preliminary evaluation
Experimental: as §1

Escherichia coli 8739 = test: MIC/MBC by tube dilution procedure; type: cell-based; conditions: preliminary evaluation
Experimental: as §1

[3] = tested on: Staphylococcus aureus 6538; test: MIC/MBC by tube dilution procedure; type: cell-based; conditions: preliminary evaluation
Experimental: as §1

[4] = tested on: Staphylococcus epidermidis 51625; test: MIC/MBC by tube dilution procedure; type: cell-based; conditions: preliminary evaluation
Experimental: as §1

Bacillus subtilis 902173 = test: MIC/MBC by tube dilution procedure; type: cell-based; conditions: preliminary evaluation
Experimental: as §1

[5] = tested on: Staphylococcus aureus 33591; test: MIC/MBC by tube dilution procedure; type: cell-based; conditions: preliminary evaluation
Experimental: as §1, with “DIMPTS” left out

[6] = tested on: Enterococcus faecium 700221; test: MIC/MBC by tube dilution procedure; type: cell-based; conditions: preliminary evaluation
Experimental: as §1, with “DIMPTS” left out

[7] = tested on: S. aureus, E. coli, P. aeruginosa, K. pneumoniae, P. cepacia, E. cloacae, S. marcescens, S. pyogenes, E. faecalis-Vancomycin Resistant, C. albicans and B. …; conditions: reported for blends with acrylic hot melt adhesive polymers; cited from earlier work
[8] = tested on: genus Staphylococcus, Staphylococcus epidermidis, Staphylococcus aureus, methicillin-resistant Staphylococcus epidermidis, and methicillin-resistant …; conditions: cited from earlier work
[9] = aqueous; cited from earlier work

MIC (Candida albicans 10231): 5 µg/mL (≈ 11.8 µM) | MIC [1]: 50 µg/mL (≈ 118 µM) | MIC [2]: > 100 µg/mL | MIC (Escherichia coli 8739): 100 µg/mL (≈ 237 µM) | MIC [3]: 100 µg/mL (≈ 237 µM) | MIC [4]: 25 µg/mL (≈ 59.2 µM) | MIC (Bacillus subtilis 902173): 50 µg/mL (≈ 118 µM) | MIC [5]: 12.5 µg/mL (≈ 29.6 µM) | MIC [6]: 50 µg/mL (≈ 118 µM)
Structure (SMILES): Cc1ccc(S(=O)(=O)C(I)I)cc1 [DIMPTS, diiodomethyl-p-tolylsulfone]
MBC (Candida albicans 10231): 10 to 100 µg/mL (≈ 23.7 to 237 µM) | MBC [1]: 125 to 250 µg/mL (≈ 296 to 592 µM) | MBC (Escherichia coli 8739): < 250 µg/mL | MBC [3]: < 250 µg/mL | MBC [4]: < 100 µg/mL | MBC (Bacillus subtilis 902173): 50 to 100 µg/mL (≈ 118 to 237 µM) | MBC [5]: < 250 µg/mL | Zones of inhibition against several organisms [7]: zones of inhibition

Structure (SMILES): Oc1cc(Cl)ccc1Oc1ccc(Cl)cc1Cl [2,4,4′-trichloro-2′-hydroxydiphenyl ether]
Antimicrobial effect [8]: has an antimicrobial effect

Structure (SMILES): [O-][Cl+3]([O-])([O-])O [perchloric acid]
pKa [9]: −5.0
